Results from US4320051A, “Analgesic tripeptide amides” (American Home Products Corporation, priority 1980, dated 1982).
“And” between values parts separate entries of the source, which are not always exact repeats. Identical values can stand only once. Square brackets hold non-standard residues; d marks the D form. Ends that are not written are not given here.

Experiments:
[1] = test system: phenylbenzoquinone-induced writhing; test: phenylbenzoquinone-induced writhing test; format: in vivo; settings: subcutaneous, mice
Method: Exp. Biol. Med., 95, 729-731 (1957), by establishing three groups of ten mice (Carworth farms) per group (18-27 g. body weight). The animals receive the compound being tested (Examples 9 and 15) subsubcutaneously. Five or 20 minutes later each animal received 0.25 milliliters of the writhing agonist (i.e. 0.02% solution of PBQ). The animals receiving the writhing agonist five minutes after the test compound are observed for a period of ten minutes beginning five minutes after the injection. The animals receiving the writhing agonist 20 minutes after the test compound are observed for ten minutes beginning five minutes after the injection. A compound is an analgesic if it inhibits writhing induced by phenyl benzoquinone.

[2] = test system: opiate receptor (3H-naloxone binding); test: 3H-naloxone displacement (procedure of Chang et al.); parameters: 3H-naloxone displacement ED50: unit not given here
Source text: Enkephalin, a natural opiate receptor agonist in the brain, has been identified [see Hughes et al., Nature, 258,577 (1975)] as a mixture of two pentapeptides: H-Tyr-Gly-Gly-Phe-Met-OH (methionine-enkephalin) and H-Tyr-Gly-Gly-Phe-Leu-OH (leucine-enkephalin). […] It has been reported that methionine-enkephalin and leucine-enkephalin, when administered by injection in the brain ventricle in rats, induce a profound analgesia that is fully reversible by naloxone. [See Beluzzi et al., Nature, 260, 625 (1976)].

[3] = intravenous administration, relative to morphine; cited from earlier work

C[C@@H](NC(=O)[C@@H](N)Cc1ccc(O)cc1)C(=O)NCC(=O)NC(Cc1ccccc1)CN1CCN(C)CC1 (stereo partly drawn) [Example 9, L-Tyrosyl-D-alanyl-N-[1-[(4-methyl-1-piperazinyl)methyl]-2-phenyl-ethyl]glycinamide]
ED50 mg/kg. (confidence limits) ([1]; Time 15 minutes): 1.05 (0.62-1.79) mg/kg
ED50 mg/kg. (confidence limits) ([1]; Time 30 minutes): 4.60 (3.1-6.9) mg/kg and 6.20 (4.4-8.7) mg/kg
3H-naloxone displacement ED50 [2]: 1.36×10^-7
relative displacement potency ([2]; 3H-naloxone displacement, morphine=1): 1.3

Y[dM]GFP-NH2
times more potent than morphine [3]: 5.5 times
